According to US10076519B2 (CYTOKINETICS, INC., priority 2010, dated 2018):

These compounds were tested on rabbit skeletal myofibrils (fast skeletal myofibrils) (assay: Activation of fast skeletal myofibrils (PUMA assay, PK/LDH-coupled ATPase at pCa25)). Settings: AC1.4 determined according to the procedure of Example 39; reported as class symbols.
Format: biochemical
Summary of the method: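 ATPase activity of Triton-washed rabbit skeletal myofibrils, roughly 90% fast fibres, tracked by NADH loss at 340 nm through a PK/LDH-coupled ADP-regenerating system. Calcium set to 25% of maximal activity (pCa25), in PIPES 12 mM pH 6.8 with 2 mM MgCl2 and 1 mM DTT; AC1.4 reported.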

Mean AC1.4	SMILES
D (D=>20 uM)	CC(C)(CNc1ccc(C(=O)NCC(N)=O)nn1)c1ccc(F)cc1 [N-(carbamoylmethyl)(6-{[2-(4-fluorophenyl)-2-methylpropyl]amino}pyridazin-3-yl)carboxamide]
C (C=10-20 uM)	CC(=O)Nc1nc(-c2ccc(NCC(C)(C)c3ccc(F)cc3)nn2)c[nH]1 [N-[4-(6-{[2-(4-fluorophenyl)-2-methylpropyl]amino}pyridazin-3-yl)imidazol-2-yl]acetamide]
A (A=<1 uM)	COC(=O)Nc1n[nH]c2ccc(-c3ccc(NCC(C)(C)c4ccc(F)cc4)nn3)cc12 [N-[5-(6-{[2-(4-fluorophenyl)-2-methylpropyl]amino}pyridazin-3-yl)(1H-indazol-3-yl)]methoxycarboxamide]

Same assay, conditions: median AC1.4 class, procedure of Example 39

SMILES	Mean AC1.4
O=C(N[C@H]1CCNC1)c1cnc(-c2ccc(NCC3(c4ncccc4F)CCC3)nn2)s1 [N-((3S)pyrrolidin-3-yl){2-[6-({[(3-fluoro(2-pyridyl))cyclobutyl]methyl}ami-no)pyridazin-3-yl](1,3-thiazol-5-yl)}carboxamide]	A (A=<1 uM)
O=C(N[C@H]1CCNC1)c1ccc(F)c(-c2ccc(NC[C@]3(c4ncccc4F)C[C@H](F)C3)nn2)c1 [N-((3S)pyrrolidin-3-yl){4-fluoro-3-[6-({[3-fluoro-1-(3-fluoro(2-pyridyl))cyclobutyl]methyl}ami-no)pyridazin-3-yl]phenyl}carboxamide]	B (B=1-10 uM)
O=C(NCc1cnc(-c2ccc(NCC3(c4ncccc4F)CCC3)nn2)s1)c1cnc(O)[nH]1 [N-({2-[6-({[(3-fluoro(2-pyridyl))cyclobutyl]methyl}ami-no)pyridazin-3-yl](1,3-thiazol-5-yl)}methyl)(2-hydroxyimidazol-5-yl)carboxamide]	A (A=<1 uM)
O=C(CO)NCc1cnc(-c2ccc(NCC3(c4ncccc4F)CCC3)nn2)s1 [N-({2-[6-({[(3-fluoro(2-pyridyl))cyclobutyl]methyl}ami-no)pyridazin-3-yl](1,3-thiazol-5-yl)}methyl)-2-hydroxyacetamide]	A (A=<1 uM)
CC(C)C(=O)NCc1cnc(-c2ccc(NCC3(c4ncccc4F)CCC3)nn2)s1 [N-({2-[6-({[(3-fluoro(2-pyridyl))cyclobutyl]methyl}ami-no)pyridazin-3-yl](1,3-thiazol-5-yl)}methyl)-2-methylpropanamide]	A (A=<1 uM)
O=C(NCc1cnc(-c2ccc(NCC3(c4ncccc4F)CCC3)nn2)s1)c1cnc[nH]1 [N-({2-[6-({[(3-fluoro(2-pyridyl))cyclobutyl]methyl}ami-no)pyridazin-3-yl](1,3-thiazol-5-yl)}methyl)imidazol-5-ylcarboxamide]	A (A=<1 uM)
COC(=O)NCc1cnc(-c2ccc(NCC3(c4ncccc4F)CCC3)nn2)s1 [N-({2-[6-({[(3-fluoro(2-pyridyl))cyclobutyl]methyl}ami-no)pyridazin-3-yl](1,3-thiazol-5-yl)}methyl)methoxycarboxamide]	B (B=1-10 uM)
O=C(NCc1cnc(-c2ccc(NCC3(c4ncccc4F)CCC3)nn2)s1)c1cn[nH]c1 [N-({2-[6-({[(3-fluoro(2-pyridyl))cyclobutyl]methyl}ami-no)pyridazin-3-yl](1,3-thiazol-5-yl)}methyl)pyrazol-4-ylcarboxamide]	A (A=<1 uM)
O=C(NCc1cnc(-c2ccc(NCC3(c4ncccc4F)CCC3)nn2)s1)c1ccn[nH]1 [N-({2-[6-({[(3-fluoro(2-pyridyl))cyclobutyl]methyl}ami-no)pyridazin-3-yl](1,3-thiazol-5-yl)}methyl)pyrazol-5-ylcarboxamide]	A (A=<1 uM)

More lines, now with the values ahead:

Mean AC1.4	SMILES
A (A=<1 uM)	O=C(N[C@@H]1CCNC1)c1cnc(-c2ccc(NCC3(c4ncccc4F)CCC3)nn2)s1 [N-((3R)pyrrolidin-3-yl){2-[6-({[(3-fluoro(2-pyridyl))cyclobutyl]methyl}ami-no)pyridazin-3-yl](1,3-thiazol-5-yl)}carboxamide]
B (B=1-10 uM)	O=C(N[C@@H]1CCNC1)c1ccc(F)c(-c2ccc(NC[C@]3(c4ncccc4F)C[C@H](F)C3)nn2)c1 [N-((3R)pyrrolidin-3-yl){4-fluoro-3-[6-({[3-fluoro-1-(3-fluoro(2-pyridyl))cyclobutyl]methyl}ami-no)pyridazin-3-yl]phenyl}carboxamide]
D (D=>20 uM)	NC(=O)CNC(=O)c1ccc(NCC2(c3ncccc3F)CCC2)nn1 [N-(carbamoylmethyl)[6-({[(3-fluoro(2-pyridyl))cyclobutyl]methyl}ami-no)pyridazin-3-yl]carboxamide]
A (A=<1 uM)	NC(=O)CNC(=O)c1cnc(-c2ccc(NCC3(c4ncccc4F)CCC3)nn2)s1 [N-(carbamoylmethyl){2-[6-({[(3-fluoro(2-pyridyl))cyclobutyl]methyl}ami-no)pyridazin-3-yl](1,3-thiazol-5-yl)}carboxamide]
A (A=<1 uM)	CC(C)(O)C(=O)NCc1cnc(-c2ccc(NCC3(c4ncccc4F)CCC3)nn2)s1 [N-({2-[6-({[(3-fluoro(2-pyridyl))cyclobutyl]methyl}ami-no)pyridazin-3-yl](1,3-thiazol-5-yl)}methyl)-2-hydroxy-2-methylpropanamide]
A (A=<1 uM)	O=C(NCc1cnc(-c2ccc(NCC3(c4ncccc4F)CCC3)nn2)s1)c1ncc[nH]1 [N-({2-[6-({[(3-fluoro(2-pyridyl))cyclobutyl]methyl}ami-no)pyridazin-3-yl](1,3-thiazol-5-yl)}methyl)imidazol-2-ylcarboxamide]
A (A=<1 uM)	O=C(NCc1cnc(-c2ccc(NCC3(c4ncccc4F)CCC3)nn2)s1)C1(NCc2ccccc2)COC1 [N-({2-[6-({[(3-fluoro(2-pyridyl))cyclobutyl]methyl}ami-no)pyridazin-3-yl](1,3-thiazol-5-yl)}methyl){3-[benzylamino]oxetan-3-yl}carboxamide]
A (A=<1 uM)	CC(=O)NCc1cnc(-c2ccc(NCC3(c4ncccc4F)CCC3)nn2)s1 [N-({2-[6-({[(3-fluoro-2-pyridyl)cyclobutyl]methyl}ami-no)pyridazin-3-yl]-1,3-thiazol-5-yl}methyl)acetamide]

Same assay, conditions: median AC1.4 reported as class; procedure of Example 39

SMILES	Mean AC1.4
O=C(N[C@H]1CCNC1=O)c1ccc(NCC2(c3ncccc3F)CCC2)nn1 [N-((3S)-2-oxopyrrolidin-3-yl)[6-({[(3-fluoro(2-pyridyl))cyclobutyl]methyl}ami-no)pyridazin-3-yl]carboxamide]	D (D=>20 uM)
O=C1CC[C@H](NC(=O)c2ccc(NCC3(c4ncccc4F)CCC3)nn2)CN1 [N-((3S)-6-oxo(3-piperidyl))[6-({[(3-fluoro(2-pyridyl))cyclobutyl]methyl}ami-no)pyridazin-3-yl]carboxamide]	D (D=>20 uM)
O=C(N[C@H]1CCOC1)c1cccc(-c2ccc(NC[C@]3(c4ncccc4F)C[C@H](F)C3)nn2)c1 [N-((3S)oxolan-3-yl){3-[6-({[3-fluoro-1-(3-fluoro(2-pyridyl))cyclobutyl]methyl}ami-no)pyridazin-3-yl]phenyl}carboxamide]	B (B=1-10 uM)
O=C(N[C@@H]1CS(=O)(=O)C[C@H]1O)c1cccc(-c2ccc(NC[C@]3(c4ncccc4F)C[C@H](F)C3)nn2)c1 [N-((3S,4S)-4-hydroxy-1,1-dioxothiolan-3-yl){3-[6-({[3-fluoro-1-(3-fluoro(2-pyridyl))cyclobutyl]methyl}ami-no)pyridazin-3-yl]phenyl}carboxamide]	B (B=1-10 uM)
CN(Cc1cnc(-c2ccc(NCC3(c4ncccc4F)CCC3)nn2)s1)C(=O)CO [N-({2-[6-({[(3-fluoro(2-pyridyl))cyclobutyl]methyl}ami-no)pyridazin-3-yl](1,3-thiazol-5-yl)}methyl)-2-hydroxy-N-methylacetamide]	B (B=1-10 uM)
CC(=O)NCc1cccc(-c2ccc(NC[C@]3(c4ncccc4F)C[C@H](F)C3)nn2)c1 [N-({3-[6-({[3-fluoro-1-(3-fluoro(2-pyridyl))cyclobutyl]methyl}ami-no)pyridazin-3-yl]phenyl}methyl)acetamide]	B (B=1-10 uM)
CC(=O)NCc1nc(-c2ccc(NCC3(c4ncccc4F)CCC3)nn2)cs1 [N-({4-[6-({[(3-fluoro-2-pyridyl)cyclobutyl]methyl}ami-no)pyridazin-3-yl]-1,3-thiazol-2-yl}methyl)acetamide]	D (D=>20 uM)
CC(=O)NCc1ncc(-c2ccc(NCC3(c4ncccc4F)CCC3)nn2)s1 [N-({5-[6-({[(3-fluoro-2-pyridyl)cyclobutyl]methyl}ami-no)pyridazin-3-yl]-1,3-thiazol-2-yl}methyl)acetamide]	B (B=1-10 uM)
NC(=O)Cc1csc(NC(=O)c2ccc(NCC3(c4ncccc4F)CCC3)nn2)n1 [N-[4-(carbamoylmethyl)(1,3-thiazol-2-yl)][6-({[(3-fluoro(2-pyridyl))cyclobutyl]methyl}ami-no)pyridazin-3-yl]carboxamide]	A (A=<1 uM)

Continued, values first:

Mean AC1.4	SMILES
D (D=>20 uM)	O=C1CC[C@@H](NC(=O)c2ccc(NCC3(c4ncccc4F)CCC3)nn2)CN1 [N-((3R)-6-oxo(3-piperidyl))[6-({[(3-fluoro(2-pyridyl))cyclobutyl]methyl}ami-no)pyridazin-3-yl]carboxamide]
B (B=1-10 uM)	O=C(N[C@@H]1CCOC1)c1cccc(-c2ccc(NC[C@]3(c4ncccc4F)C[C@H](F)C3)nn2)c1 [N-((3R)oxolan-3-yl){3-[6-({[3-fluoro-1-(3-fluoro(2-pyridyl))cyclobutyl]methyl}ami-no)pyridazin-3-yl]phenyl}carboxamide]
A (A=<1 uM)	CNC(C)(C)C(=O)NCc1cnc(-c2ccc(NCC3(c4ncccc4F)CCC3)nn2)s1 [N-({2-[6-({[(3-fluoro(2-pyridyl))cyclobutyl]methyl}ami-no)pyridazin-3-yl](1,3-thiazol-5-yl)}methyl)-2-methyl-2-(methylamino)propanamide]
B (B=1-10 uM)	CC(=O)NCc1ccc(F)c(-c2ccc(NC[C@]3(c4ncccc4F)C[C@H](F)C3)nn2)c1 [N-({4-fluoro-3-[6-({[3-fluoro-1-(3-fluoro(2-pyridyl))cyclobutyl]methyl}ami-no)pyridazin-3-yl]phenyl}methyl)acetamide]
